How the values were obtained:
[1] = system: human cervical tumor cell line HeLa (ATCC CCL-2); test: SAC-Formation - Nocodazole-Induced Assay; assay type: cell-based; details: Homo sapiens, HeLa, 24 h, HeLa cells, nocodazole 0.1 μg/ml together with test compound, decrease of mitotic cells (phospho-histone H3 Ser10)
Procedure, shortened: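 HeLa cells, plated overnight, were treated 24 h at 37 °C with nocodazole (0.1 μg/ml final) plus test compound (0.005–20 μM, 0.5% DMSO) added at the same time. After fixation, anti-phospho-histone H3 Ser10 and Hoechst staining gave the mitotic cell fraction by imaging. Values came from four-parameter Hill fits.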

[2] = system: human cervical tumor cell line HeLa (ATCC CCL-2); test: SAC-Formation - Paclitaxel-Induced Assay; assay type: cell-based; details: Homo sapiens, HeLa, 24 h, HeLa cells, paclitaxel 0.05 μM, test range 0.005 μM-20 μM, read-out: IC50 [mol/l] SAC-Formation - Paclitaxel-Induced Assay
Procedure, shortened: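 HeLa cells incubated overnight at 37° C, then given paclitaxel (0.05 μM final) plus test compound (0.005–20 μM, 0.5% DMSO) together for 24 h at 37° C. Fixed cells stained for phospho-histone H3 Ser10 (mitotic cells) and Hoechst 33342 (cell count); imaging-derived mitotic index fitted by four-parameter Hill equation.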

Structure (SMILES) | IC50 [1] [nM] | IC50 [2] [nM]
COCCOc1ccc(NC(=O)c2c(C)nsc2Nc2nc3c(C(F)(F)F)cccc3s2)cc1F [Example 1, N-[3-Fluoro-4-(2-methoxyethoxy)phenyl]-3-methyl-5-{[4-(trifluoromethyl)-1,3-benzothiazol-2-yl]amino}-1,2-thiazole-4-carboxamide] | 72 | 94
Cc1nsc(Nc2nc3c(C(F)(F)F)cccc3s2)c1C(=O)Nc1ccc(OCCO)nc1 [Example 2, N-[6-(2-Hydroxyethoxy)pyridin-3-yl]-3-methyl-5-{[4-(trifluoromethyl)-1,3-benzo-thiazol-2-yl]amino}-1,2-thiazole-4-carboxamide] | 560 | 460
COCCOc1ccc(NC(=O)c2c(C)nsc2Nc2nc3c(C(F)(F)F)cccc3s2)cn1 [Example 3, N-[6-(2-Methoxyethoxy)pyridin-3-yl]-3-methyl-5-{[4-(trifluoromethyl)-1,3-benzo-thiazol-2-yl]amino}-1,2-thiazole-4-carboxamide] | 230 | 130
Cc1nsc(Nc2nc3c(C(F)(F)F)cccc3s2)c1C(=O)Nc1ccc(OCCO)c(F)c1 [Example 4, N-[3-Fluoro-4-(2-hydroxyethoxy)phenyl]-3-methyl-5-{[4-(trifluoromethyl)-1,3-benzothiazol-2-yl]amino}-1,2-thiazole-4-carboxamide] | 980 | 980
Cc1nsc(Nc2cnc(C(F)(F)F)cn2)c1C(=O)Nc1ccc(OC2CCN(C(=O)OC(C)(C)C)CC2)nc1 [Example 5, tert-Butyl 4-[(5-{[(3-methyl-5-{[5-(trifluoromethyl)pyrazin-2-yl]amino}-1,2-thiazol-4-yl)carbonyl]amino}pyridin-2-yl)oxy]piperidine-1-carboxylate] | 43 | 110
Cc1nsc(Nc2cc(C#N)ccn2)c1C(=O)Nc1ccc(OC2CCCNC2)nc1 (stereo not shown) [Example 35, 5-[(4-Cyanopyridin-2-yl)amino]-3-methyl-N-[6-(piperidin-3-yloxy)pyridin-3-yl]-1,2-thiazole-4-carboxamide] | 15000 | 20000
Cc1nsc(Nc2ccc(C#N)cn2)c1C(=O)Nc1ccc(OC2CCCN(C(=O)OC(C)(C)C)C2)nc1 (stereo not shown) [Example 36, tert-Butyl 3-({5-[({5-[(5-cyanopyridin-2-yl)amino]-3-methyl-1,2-thiazol-4-yl}-carbonyl)amino]pyridin-2-yl}oxy)piperidine-1-carboxylate] | 210 | 590
Cc1nsc(Nc2ccc(C#N)cn2)c1C(=O)Nc1ccc(OC2CCCNC2)nc1 (stereo not shown) [Example 37, 5-[(5-Cyanopyridin-2-yl)amino]-3-methyl-N-[6-(piperidin-3-yloxy)pyridin-3-yl]-1,2-thiazole-4-carboxamide] | 4200 | 5200
Cc1nsc(Nc2ccc(C#N)cn2)c1C(=O)Nc1ccc(OC2CCCN(CCF)C2)nc1 (stereo not shown) [Example 38, 5-[(5-Cyanopyridin-2-yl)amino]-N-(6-{[1-(2-fluoroethyl)piperidin-3-yl]oxy}pyridin-3-yl)-3-methyl-1,2-thiazole-4-carboxamide] | 1800 | 13000
Cc1nsc(Nc2ccc(C#N)cn2)c1C(=O)Nc1ccc(OC2CCCN(CC(F)F)C2)nc1 (stereo not shown) [Example 39, 5-[(5-Cyanopyridin-2-yl)amino]-N-(6-{[1-(2,2-difluoroethyl)piperidin-3-yl]oxy}-pyridin-3-yl)-3-methyl-1,2-thiazole-4-carboxamide] | 15 | 24
Cc1nsc(Nc2ccc(C#N)cn2)c1C(=O)Nc1ccc(OC2CCCN(CC(F)(F)F)C2)nc1 (stereo not shown) [Example 40, 5-[(5-Cyanopyridin-2-yl)amino]-3-methyl-N-(6-{[1-(2,2,2-trifluoroethyl)piperidin-3-yl]oxy}pyridin-3-yl)-1,2-thiazole-4-carboxamide] | 150 | 390
Cc1nsc(Nc2cnccn2)c1C(=O)Nc1ccc(OC2CCCN(C(=O)OC(C)(C)C)C2)nc1 (stereo not shown) [Example 41, tert-Butyl 3-{[5-({[3-methyl-5-(pyrazin-2-ylamino)-1,2-thiazol-4-yl]carbonyl}amino)-pyridin-2-yl]oxy}piperidine-1-carboxylate] | 240 | 1800
Cc1nsc(Nc2cnc3ccccc3n2)c1C(=O)Nc1ccc(OCCCNC(=O)OC(C)(C)C)nc1 [Example 42, tert-Butyl (3-{[5-({[3-methyl-5-(quinoxalin-2-ylamino)-1,2-thiazol-4-yl]carbonyl}-amino)pyridin-2-yl]oxy}propyl)carbamate] | 820 | 1700
Cc1nsc(Nc2cc(C#N)ccn2)c1C(=O)Nc1ccc(OCCCNC(=O)OC(C)(C)C)nc1 [Example 43, tert-Butyl [3-({5-[({5-[(4-cyanopyridin-2-yl)amino]-3-methyl-1,2-thiazol-4-yl}-carbonyl)amino]pyridin-2-yl}oxy)propyl]carbamate] | 130 | 300
Cc1nsc(Nc2cc(C#N)ccn2)c1C(=O)Nc1ccc(OCCCN)nc1 [Example 44, N-[6-(3-Aminopropoxy)pyridin-3-yl]-5-[(4-cyanopyridin-2-yl)amino]-3-methyl-1,2-thiazole-4-carboxamide] | 20000 | 20000
Cc1nsc(Nc2cc(C#N)ccn2)c1C(=O)Nc1ccc(OCCCNCC(F)F)nc1 [Example 45, 5-[(4-Cyanopyridin-2-yl)amino]-N-(6-{3-[(2,2-difluoroethyl)amino]propoxy}pyridin-3-yl)-3-methyl-1,2-thiazole-4-carboxamide] | 3500 | 20000

Further lines, results first:

IC50 [1] [nM] | IC50 [2] [nM] | Structure (SMILES)
41 | 250 | Cc1nsc(Nc2ccc(C#N)cn2)c1C(=O)Nc1ccc(OCCCNC(=O)OC(C)(C)C)nc1 [Example 46, tert-Butyl [3-({5-[({5-[(5-cyanopyridin-2-yl)amino]-3-methyl-1,2-thiazol-4-yl}-carbonyl)amino]pyridin-2-yl}oxy)propyl]carbamate]
3600 | 13000 | Cc1nsc(Nc2cnccn2)c1C(=O)Nc1ccc(OCCCNC(=O)OC(C)(C)C)nc1 [Example 47, tert-Butyl (3-{[5-({[3-methyl-5-(pyrazin-2-ylamino)-1,2-thiazol-4-yl]carbonyl}-amino)pyridin-2-yl]oxy}propyl)carbamate]
5800 | 6600 | Cc1nsc(Nc2cnccn2)c1C(=O)Nc1ccc(OCCCN)nc1 [Example 48, N-[6-(3-Aminopropoxy)pyridin-3-yl]-3-methyl-5-(pyrazin-2-ylamino)-1,2-thiazole-4-carboxamide]
29 | 410 | Cc1nsc(Nc2cnc3ccccc3n2)c1C(=O)Nc1cccc(C(=O)OC(C)(C)C)c1 [Example 49, tert-Butyl 3-({[3-methyl-5-(quinoxalin-2-ylamino)-1,2-thiazol-4-yl]carbonyl}amino)-benzoate]
4500 | 620 | COC(=O)c1cccc(NC(=O)c2c(C)nsc2Nc2cnc3ccccc3n2)c1 [Example 50, Methyl 3-({[3-methyl-5-(quinoxalin-2-ylamino)-1,2-thiazol-4-yl]carbonyl}amino)-benzoate]
20000 | 20000 | Cc1nsc(Nc2cnc3ccccc3n2)c1C(=O)Nc1cccc(C(=O)O)c1 [Example 51, 3-({[3-Methyl-5-(quinoxalin-2-ylamino)-1,2-thiazol-4-yl]carbonyl}amino)benzoic acid]
28 | 780 | Cc1nsc(Nc2cnc3ccccc3n2)c1C(=O)Nc1cccc(C(=O)N2CCOCC2)c1 [Example 52, 3-Methyl-N-[3-(morpholin-4-ylcarbonyl)phenyl]-5-(quinoxalin-2-ylamino)-1,2-thiazole-4-carboxamide]
950 | 1100 | Cc1nsc(Nc2cnc3ccccc3n2)c1C(=O)Nc1cccc(C(=O)NC(C)(C)C)c1 [Example 53, N-[3-(tert-Butylcarbamoyl)-phenyl]-3-methyl-5-(quinoxalin-2-ylamino)-1,2-thiazole-4-carboxamide]
– | 29 | Cc1nsc(Nc2cnc(C(F)(F)F)cn2)c1C(=O)Nc1ccc(OC[C@H]2CCCN(CCC(F)(F)F)C2)nc1 [Example 378, 3-methyl-5-{[5-(trifluoromethyl)pyrazin-2-yl]amino}-N-(6-{[(3S)-1-(3,3,3-trifluoropropyl)piperidin-3-yl]methoxy}pyridin-3-yl)-1,2-thiazole-4-carboxamide]
– | 190 | CCCN1CCC(COc2ccc(NC(=O)c3c(C)nsc3Nc3cnc(C(F)(F)F)cn3)cn2)C(F)(F)C1 (stereo not shown) [Example 394, N-{6-[(3,3-difluoro-1-propylpiperidin-4-yl)methoxy]pyridin-3-yl}-3-methyl-5-{[5-(trifluoromethyl)pyrazin-2-yl]amino}-1,2-thiazole-4-carboxamide]
27 | – | Cc1nsc(Nc2cnc(C(F)(F)F)cn2)c1C(=O)Nc1ccc(OCC2CCN(CC(F)F)CC2(F)F)nc1 (stereo not shown) [Example 401, N-(6-{[1-(2,2-difluoroethyl)-3,3-difluoropiperidin-4-yl]methoxy}pyridin-3-yl)-3-methyl-5-{[5-(trifluoromethyl)pyrazin-2-yl]amino}-1,2-thiazole-4-carboxamide]
86 | – | Cc1nsc(Nc2ccc(C#N)cn2)c1C(=O)Nc1ccc(OC[C@H]2CCN(CC(F)(F)F)C2)nc1 [Example 405, 5-[(5-Cyanopyridin-2-yl)amino]-3-methyl-N-(6-{[(35)-1-(2,2,2-trifluoroethyl)pyrrolidin-3-yl]methoxy}pyridin-3-yl)-1,2-thiazole-4-carboxamide]
